Values quoted from earlier work, collected in patent US4760029A, “Assay for D-1 antagonistic activity of neuroleptic drugs” (Schering Corporation, priority 1984, dated 1988).

Experiments:
[1] = tested on: D-2 sites; details: J. Pharmacol. Exp. Ther., 226, 462 (1983)
[2] = J. Pharmacol. Exp. Ther., 226, 462 (1983)
[3] = tested on: dopamine stimulated adenylate cyclase; details: J. Pharmacol. Exp. Ther., 226, 462 (1983)
[4] = tested on: D-1 sites; details: Eur. J. Pharmacol. 91, 153(1983)

## CN1CCc2cc(Cl)c(O)cc2[C@@H](c2ccccc2)C1 [Compound, R-(+)-8-chloro-2,3,4,5-tetrahydro-3-methyl-5-phenyl-1H-3-benzazepin-7-ol]
[1]
  displacement of ^3 H-spiperone binding: weak displacement
[2]
  prolactinemia: no prolactinemia
[3]
  blockade of dopamine stimulated adenylate cyclase: potent blockade
[4]
  ability to inhibit ^3 H-cis-(Z)-piflutixol binding: very potent
